# Test results published in ChEMBL document CHEMBL4831510, “Novel cannabidiol-carbamate hybrids as selective BuChE inhibitors: Docking-based fragment reassembly for the development of potential therapeutic agents against Alzheimer's disease” (Eur J Med Chem, 2021).
# Active and inactive are the calls of the source. The rule behind the calls is not given here.
# How the values were obtained:
# [1] = Antioxidant activity assessed as DPPH radical scavenging activity at 100 uM incubated for 2 hrs by microplate reader method; format: functional
# Cholinesterase [2] = target: T1, Cholinesterase (Equus caballus, UniProt P81908)
# T1 sequence (P81908 whole entry): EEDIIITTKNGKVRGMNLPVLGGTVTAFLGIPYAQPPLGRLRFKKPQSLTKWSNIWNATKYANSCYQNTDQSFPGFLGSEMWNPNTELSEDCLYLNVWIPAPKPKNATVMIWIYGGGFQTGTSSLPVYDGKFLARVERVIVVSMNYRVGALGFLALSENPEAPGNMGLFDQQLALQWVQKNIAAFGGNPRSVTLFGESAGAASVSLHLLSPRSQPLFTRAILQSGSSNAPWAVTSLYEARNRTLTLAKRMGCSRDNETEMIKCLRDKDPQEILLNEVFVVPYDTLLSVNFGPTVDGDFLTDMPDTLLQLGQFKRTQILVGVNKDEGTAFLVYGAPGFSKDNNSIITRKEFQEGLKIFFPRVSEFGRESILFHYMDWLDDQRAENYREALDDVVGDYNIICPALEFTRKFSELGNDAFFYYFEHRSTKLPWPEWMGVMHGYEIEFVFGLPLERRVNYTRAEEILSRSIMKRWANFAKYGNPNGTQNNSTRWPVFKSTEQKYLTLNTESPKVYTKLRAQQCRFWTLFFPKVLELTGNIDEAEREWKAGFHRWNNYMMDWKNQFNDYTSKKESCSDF
# Description: Inhibition of equine serum BuChE using butyrylthiocholine iodide as substrate preincubated with enzyme for 20 mins followed by substrate addition and measured after 20 mins by Ellman's method
# Acetylcholinesterase [3] = target: Acetylcholinesterase (Electrophorus electricus, UniProt O42275); assay: Inhibition of electric eel AChE using acetylthiocholine iodide as substrate preincubated with enzyme for 20 mins followed by substrate addition and measured after 20 mins by Ellman's method
# Sequence of Acetylcholinesterase (Electrophorus electricus, UniProt O42275) (O42275 whole entry): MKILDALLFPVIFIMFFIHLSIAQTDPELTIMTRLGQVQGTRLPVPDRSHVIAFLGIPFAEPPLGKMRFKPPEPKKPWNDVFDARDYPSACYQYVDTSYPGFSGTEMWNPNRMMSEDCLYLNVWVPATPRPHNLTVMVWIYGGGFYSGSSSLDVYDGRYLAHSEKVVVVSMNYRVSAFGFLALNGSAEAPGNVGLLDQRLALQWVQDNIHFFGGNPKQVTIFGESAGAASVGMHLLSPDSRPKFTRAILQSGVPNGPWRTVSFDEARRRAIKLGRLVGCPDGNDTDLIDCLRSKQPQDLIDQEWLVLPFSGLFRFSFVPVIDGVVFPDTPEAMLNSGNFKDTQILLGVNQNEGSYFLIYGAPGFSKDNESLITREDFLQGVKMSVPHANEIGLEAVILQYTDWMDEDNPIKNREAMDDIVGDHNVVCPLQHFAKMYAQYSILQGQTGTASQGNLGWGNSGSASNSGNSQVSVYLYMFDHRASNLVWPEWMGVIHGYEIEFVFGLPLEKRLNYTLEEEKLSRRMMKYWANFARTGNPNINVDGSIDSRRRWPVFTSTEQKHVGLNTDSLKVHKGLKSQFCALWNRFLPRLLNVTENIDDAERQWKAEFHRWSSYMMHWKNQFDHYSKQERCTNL
# [4] = target: Acetylcholinesterase (Electrophorus electricus) (UniProt O42275); assay: Inhibition of electric eel AChE using acetylthiocholine iodide as substrate at 20 uM preincubated with enzyme for 20 mins followed by substrate addition and measured after 20 mins by Ellman's method; conditions: time 40.0 min
# Sequence of Acetylcholinesterase (Electrophorus electricus) (O42275 24-633 limits assumed): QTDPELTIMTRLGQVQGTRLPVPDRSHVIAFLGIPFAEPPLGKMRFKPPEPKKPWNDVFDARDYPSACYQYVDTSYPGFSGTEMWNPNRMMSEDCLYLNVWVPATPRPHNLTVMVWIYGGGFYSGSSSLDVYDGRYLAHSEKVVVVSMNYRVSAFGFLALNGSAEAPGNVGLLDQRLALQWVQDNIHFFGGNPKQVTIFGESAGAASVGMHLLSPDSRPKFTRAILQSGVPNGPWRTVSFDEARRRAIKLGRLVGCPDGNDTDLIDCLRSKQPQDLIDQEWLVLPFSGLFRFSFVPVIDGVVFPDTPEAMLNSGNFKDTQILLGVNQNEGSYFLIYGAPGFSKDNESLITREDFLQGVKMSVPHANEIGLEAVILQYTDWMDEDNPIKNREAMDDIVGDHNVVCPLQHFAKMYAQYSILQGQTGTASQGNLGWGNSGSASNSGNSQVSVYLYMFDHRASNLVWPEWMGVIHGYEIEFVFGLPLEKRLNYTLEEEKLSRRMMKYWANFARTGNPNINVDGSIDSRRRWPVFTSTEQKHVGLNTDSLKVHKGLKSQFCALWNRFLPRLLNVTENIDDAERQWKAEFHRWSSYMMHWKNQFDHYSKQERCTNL
# Cholinesterase [5] = target: Cholinesterase (Homo sapiens, UniProt P06276)
# Sequence of Cholinesterase (Homo sapiens, UniProt P06276) (P06276 whole entry): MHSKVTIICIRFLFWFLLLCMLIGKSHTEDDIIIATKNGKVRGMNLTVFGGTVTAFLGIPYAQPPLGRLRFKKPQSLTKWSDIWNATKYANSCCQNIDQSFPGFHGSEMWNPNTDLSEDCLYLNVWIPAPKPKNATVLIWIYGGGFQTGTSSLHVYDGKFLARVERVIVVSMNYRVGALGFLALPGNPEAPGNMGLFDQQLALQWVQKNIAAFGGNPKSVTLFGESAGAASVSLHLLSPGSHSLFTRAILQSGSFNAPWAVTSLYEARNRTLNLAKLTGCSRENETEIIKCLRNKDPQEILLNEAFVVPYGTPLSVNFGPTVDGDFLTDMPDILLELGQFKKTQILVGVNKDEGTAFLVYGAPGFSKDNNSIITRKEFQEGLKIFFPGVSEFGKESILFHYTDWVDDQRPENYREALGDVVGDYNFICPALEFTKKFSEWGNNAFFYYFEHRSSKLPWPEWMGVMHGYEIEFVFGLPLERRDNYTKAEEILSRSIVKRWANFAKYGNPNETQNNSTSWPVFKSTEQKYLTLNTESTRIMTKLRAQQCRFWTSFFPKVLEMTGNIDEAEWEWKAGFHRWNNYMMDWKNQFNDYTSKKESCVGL
# Description: Inhibition of human serum BuChE using butyrylthiocholine iodide as substrate preincubated with enzyme for 5 mins followed by substrate addition and measured after 5 mins by Ellman's method
# Acetylcholinesterase [6] = target: T2, Acetylcholinesterase (Homo sapiens, UniProt P22303); assay: Inhibition of human AChE using acetylthiocholine iodide as substrate preincubated with enzyme for 5 mins followed by substrate addition and measured after 5 mins by Ellman's method
# T2 sequence (P22303 whole entry): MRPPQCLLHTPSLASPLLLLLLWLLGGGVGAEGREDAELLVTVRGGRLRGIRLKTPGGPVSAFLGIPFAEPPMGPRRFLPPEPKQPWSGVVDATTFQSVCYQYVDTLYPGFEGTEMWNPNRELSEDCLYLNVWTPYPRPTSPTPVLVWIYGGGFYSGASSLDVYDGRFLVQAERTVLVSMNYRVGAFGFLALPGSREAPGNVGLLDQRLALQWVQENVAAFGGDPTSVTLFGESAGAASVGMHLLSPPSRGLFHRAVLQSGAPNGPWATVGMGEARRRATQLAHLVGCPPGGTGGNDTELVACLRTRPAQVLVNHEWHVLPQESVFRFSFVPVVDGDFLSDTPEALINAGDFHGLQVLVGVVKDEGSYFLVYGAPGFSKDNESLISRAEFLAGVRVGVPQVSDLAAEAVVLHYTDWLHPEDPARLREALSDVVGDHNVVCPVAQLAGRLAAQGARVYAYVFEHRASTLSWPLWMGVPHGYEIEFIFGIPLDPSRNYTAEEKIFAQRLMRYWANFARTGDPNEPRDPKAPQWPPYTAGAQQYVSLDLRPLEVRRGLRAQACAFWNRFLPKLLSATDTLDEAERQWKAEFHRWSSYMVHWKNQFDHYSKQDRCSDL
# [7] = n-Octanol/PBS partition coefficient, logP of the compound incubated for 48 hrs at pH 7.4 by shake flask method; format: physicochemical
# Acetylcholinesterase [8] = target: T2, Acetylcholinesterase; assay: Inhibition of human AChE using acetylthiocholine iodide as substrate at 20 uM preincubated with enzyme for 5 mins followed by substrate addition and measured after 5 mins by Ellman's method; conditions: time 10.0 min
# [9] = Permeability of the compound at 100 ug/ml incubated for 18 hrs by PAMPA; format: ADME; conditions: dose 100 µg/ml, read-out: permeability
# [10] = Hepatotoxicity in ICR mouse assessed as pericentral necrosis in liver at 30 mg/kg, ig measured after 36 hrs by immunohistochemical staining based analysis; format: toxicity, organism-based; conditions: in vivo, po
# [11] = target: Cholinesterase (Equus caballus) (UniProt P81908); assay: Pseudo-irreversible inhibition of equine serum BuChE assessed as overall carbamolyation-rate using butyrylthiocholine iodide as substrate preincubated with enzyme for 60 mins prior to substrate addition; format: cell-free
# Sequence of Cholinesterase (Equus caballus) (P81908 whole entry): as the sequence (P81908 whole entry) above
# [12] = Hepatotoxicity in ICR mouse assessed as effect on ALT level in serum at 30 mg/kg, ig measured after 36 hrs; format: toxicity, organism-based; conditions: in vivo, po
# [13] = Hepatotoxicity in ICR mouse assessed as distinct fatty degeneration of hepatocytes of the surrounding intermediate and peripheral zones in liver at 30 mg/kg, ig measured after 36 hrs by immunohistochemical staining based analysis; format: toxicity, organism-based; conditions: in vivo, po
# Mus musculus [14] = assay: Anti-alzheimer activity against oligomerized-amyloid beta (1 to 42) peptide-induced cognitive dysfunction ICR mouse model assessed as increase in neuronal density at CA1 region of hippocampus at 5 mg/kg, po administered from day 3 to 14 by Hematoxylin-Eosin staining based microscopic analysis; format: functional, organism-based; conditions: time 12.0 day
# [15] = Hepatotoxicity in ICR mouse assessed as effect on AST level in serum at 30 mg/kg, ig measured after 36 hrs; format: toxicity, organism-based; conditions: in vivo, po
# PC-12 [16] = assay: Neuroprotective activity against H2O2-induced cytotoxicity in rat PC-12 cells assessed as cell viability at 25 uM pretreated for 3 hrs followed by H2O2 stimulation and measured after 24 hrs by MTT assay (reference value: 38.7%); format: functional; conditions: time 27 hrs, read-out: Activity
# [17] = target: Cholinesterase (Equus caballus) (UniProt P81908); assay: Pseudo-irreversible inhibition of equine serum BuChE assessed as carbamolyation-rate using butyrylthiocholine iodide as substrate preincubated with enzyme for 60 mins prior to substrate addition; format: cell-free
# Mus musculus [18] = assay: Anti-alzheimer activity against oligomerized-amyloid beta (1 to 42) peptide-induced cognitive dysfunction ICR mouse model assessed as simplification of trajectories to the platform at 5 mg/kg, po administered from day 3 to 14 by Morris water maze test; format: functional, organism-based; conditions: time 12.0 day
# [19] = Cytotoxicity against human L02 cells assessed as cell viability at 50 uM incubated for 24 hrs by MTT assay; format: cell-based; conditions: read-out: Activity
# PC-12 [20] = assay: Neuroprotective activity against H2O2-induced cytotoxicity in rat PC-12 cells assessed as increase in cell viability pretreated for 3 hrs followed by H2O2 stimulation and measured after 24 hrs by MTT assay; format: functional, cell-based; conditions: time 27.0 hrs
# Mus musculus [21] = assay: Anti-alzheimer activity against oligomerized-amyloid beta (1 to 42) peptide-induced cognitive dysfunction ICR mouse model assessed as reduction in escape latency time at 5 mg/kg, po administered from day 3 to 14 by Morris water maze test; format: functional, organism-based; conditions: time 12.0 day
# [22] = Acute toxicity in ICR mouse assessed as animal death at 1 g/kg, ig measured for 7 days; conditions: in vivo, po, 1000 mg/kg, 168 h, time 7 day
# [23] = Acute toxicity in ICR mouse assessed as behavioral changes at 1 g/kg, ig measured for 7 days; conditions: in vivo, po, 1000 mg/kg, 168 h, time 7 day
# Mus musculus [24] = assay: Anti-alzheimer activity against oligomerized-amyloid beta (1 to 42) peptide-induced cognitive dysfunction ICR mouse model assessed as improvement in alteration performance at 5 mg/kg, po administered from day 3 to 14 by […]; format: functional, organism-based; conditions: time 12.0 day
# Mus musculus [25] = assay: Anti-alzheimer activity against scopolamine-induced cognitive dysfunction mouse model assessed as increase in swimming time in the target quadrant crossing at 20 mg/kg, ip measured after 60 mins by Morris water maze test; format: functional, organism-based
# [26] = Acute toxicity in ICR mouse assessed as effect on body weight at 1 g/kg, ig measured for 14 days; conditions: in vivo, po, 1000 mg/kg, 336 h, time 14 day
# [27] = target: Cholinesterase (Equus caballus) (UniProt P81908); assay: Pseudo-irreversible inhibition of equine serum BuChE assessed as decarbamolyation-rate using butyrylthiocholine iodide as substrate preincubated with enzyme for 60 mins prior to substrate addition; format: cell-free
# [28] = Cytotoxicity against human HepG2 cells assessed as cell viability at 50 uM incubated for 24 hrs by MTT assay; format: cell-based; conditions: read-out: Activity
# Cholinesterase [29] = target: T1, Cholinesterase; assay: Pseudo-irreversible inhibition of equine serum BuChE assessed as binding affinity in an equilibrium state using butyrylthiocholine iodide as substrate preincubated with enzyme for 60 mins prior to substrate addition; format: cell-free
# Mus musculus [30] = assay: Anti-alzheimer activity against scopolamine-induced cognitive dysfunction mouse model assessed as increase in number of platform crossing at 20 mg/kg, ip measured after 60 mins by Morris water maze test; format: functional, organism-based
# Mus musculus [31] = assay: Anti-alzheimer activity against scopolamine-induced cognitive dysfunction mouse model assessed as reduction in escape time latency at 20 mg/kg, ip measured after 60 mins by Morris water maze test; format: functional, organism-based
# Mus musculus [32] = assay: Anti-alzheimer activity against oligomerized-amyloid beta (1 to 42) peptide-induced cognitive dysfunction ICR mouse model assessed as reduction in amyloid beta (1 to 42) peptide level in brain at 5 mg/kg, po administered from day 3 to 14 by ELISA; format: functional; conditions: 288 h, time 12 day
smiles,measurement,setting,value
C=C(C)[C@@H]1CCC(C)=C[C@H]1c1c(O)cc(CCCCC)cc1OC(=O)N(C)Cc1ccc(F)cc1,inhibition,[1],27%
same,IC50,Cholinesterase [2],69 nM
same,IC50,Acetylcholinesterase [3],Not Active
C=C(C)[C@@H]1CCC(C)=C[C@H]1c1c(O)cc(CCCCC)cc1OC(=O)N(C)C,inhibition,[1],27.1%
same,inhibition,[4],36.1%
same,IC50,Cholinesterase [2],200 nM
C=C(C)[C@@H]1CCC(C)=C[C@H]1c1c(O)cc(CCCCC)cc1OC(=O)N(C)Cc1ccc(Br)cc1,inhibition,[1],41.8%
same,IC50,Cholinesterase [5],2150 nM
same,IC50,Cholinesterase [2],7.3 nM
same,IC50,Acetylcholinesterase [3],Not Active
same,IC50,Acetylcholinesterase [6],Not Active
same,logD at 48 h,[7],2.37
C=C(C)[C@@H]1CCC(C)=C[C@H]1c1c(O)cc(CCCCC)cc1OC(=O)N(C)Cc1cccc(F)c1,inhibition,[1],inactive
same,IC50,Cholinesterase [2],4870 nM
same,IC50,Acetylcholinesterase [3],Not Active
C=C(C)[C@@H]1CCC(C)=C[C@H]1c1c(OC(=O)N(C)Cc2ccccc2)cc(CCCCC)cc1OC(=O)N(C)Cc1ccccc1,inhibition,[1],41.8%
same,IC50,Cholinesterase [2],380 nM
same,IC50,Acetylcholinesterase [3],Not Active
C=C(C)[C@@H]1CCC(C)=C[C@H]1c1c(O)cc(CCCCC)cc1OC(=O)N(C)CC,inhibition,[1],31.1%
same,IC50,Cholinesterase [5],1510 nM
same,inhibition,Acetylcholinesterase [8],13.2%
same,IC50,Cholinesterase [2],77 nM
same,IC50,Acetylcholinesterase [3]; read-out: IC50,15000 nM
same,"Papp at 18 h, 100 ug/ml",[9],18.8 ×10⁻⁶ cm/s
same,logD at 48 h,[7],1.92
C=C(C)[C@@H]1CCC(C)=C[C@H]1c1c(O)cc(CCCCC)cc1OC(=O)N(C)Cc1cccc(Br)c1,inhibition,[1],inactive
same,IC50,Cholinesterase [2],2400 nM
same,IC50,Acetylcholinesterase [3],Not Active
C=C(C)[C@@H]1CCC(C)=C[C@H]1c1c(O)cc(CCCCC)cc1OC(=O)N(C)Cc1ccccc1,inhibition,[1],21.1%
same,IC50,Cholinesterase [2],46 nM
same,IC50,Acetylcholinesterase [3],Not Active
same,logD at 48 h,[7],2.2
C=C(C)[C@@H]1CCC(C)=C[C@H]1c1c(O)cc(CCCCC)cc1OC(=O)N(C)Cc1ccc(Cl)cc1,Activity,[10],Non-Toxic
same,K,[11],20.3 µM/min
same,inhibition,[1],27.1%
same,inhibition,[4],21.4%
same,Activity,[12],Non-Toxic
same,IC50,Cholinesterase [5],1770 nM
same,Activity,[13],Non-Toxic
same,Activity,Mus musculus [14],Active
same,Activity,[15],Non-Toxic
same,viability at 25 µM,PC-12 [16],41.9%
same,K,[17],0.26 min⁻¹
same,Activity,Mus musculus [18],Active
same,"viability at 24 h, 50 µM",[19],96%
same,Activity,PC-12 [20],Dose-Dependent Effect
same,Activity,Mus musculus [21],Active
same,Activity,[22],Non-Toxic
same,Activity,[23],Non-Toxic
same,Activity,Mus musculus [24],Active
same,Activity,Mus musculus [25],Active
same,Activity,[26],Non-Toxic
same,inhibition,Acetylcholinesterase [8],26.3%
same,IC50,Cholinesterase [2],5.3 nM
same,K,[27],5.2 10^3/min
same,"viability at 24 h, 50 µM",[28],88.3%
same,"Papp at 18 h, 100 ug/ml",[9],12.9 ×10⁻⁶ cm/s
same,logD at 48 h,[7],2.38
same,Kd,Cholinesterase [29],13 nM
same,Activity,Mus musculus [30],Active
same,Activity,Mus musculus [31],Active
same,inhibition in vivo at 5 mg/kg,Mus musculus [32],31.6%
C=C(C)[C@@H]1CCC(C)=C[C@H]1c1c(O)cc(CCCCC)cc1OC(=O)N1CCCCC1,inhibition,[1],46.8%
same,inhibition,[4],30.5%
same,IC50,Cholinesterase [2],530 nM
CCN(C)C(=O)Oc1cccc([C@H](C)N(C)C)c1,K,[11],0.26 µM/min
same,inhibition,[1],2.5%
same,K,[17],0.3 min⁻¹
same,inhibition,Acetylcholinesterase [8],12.2%
same,K,[27],4.97 10^3/min
